From patent US20250326771A1, “PIPERAZINE DERIVATIVES USEFUL IN HIV THERAPY” (VIIV HEALTHCARE COMPANY, priority 2022, published 2025)
Where two headings read alike, the source gives them in different places.

Assays:
[1] = molecular target: cIAP1-BIR2 (Homo sapiens (Human), UniProt Q13490); experiment: BIR binding assay (FRET competition), cIAP1 BIR2
Method in brief: (§1)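 His-tagged domains (50 nM cIAP1-BIR3, 325 nM cIAP2-BIR2, 325 nM cIAP1-BIR2, 100 nM XIAP-BIR3) compete with compounds for a 200 nM AlexaFluor647-labelled SMAC/DIABLO peptide in HEPES buffer, pH 7.4, for 60 min. Then 2 nM Eu-W1024 is added for 30 min. The 615/665 nm ratio is fit by four-parameter fit to give IC50.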

[2] = system: Jurkat HIV-luciferase clones; experiment: Jurkat latency reversal assay; format: cell-based; conditions: Homo sapiens, 48 h; Jurkat latency reversal assay potency; read-out: Jurkat pEC50 (converted)
Method in brief: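 Luminescence read-out: Steady-Glo after 48 h, 37° C, on mixed Jurkat HIV-luc clones (C16, 115, N6; 5,000 cells/well total). Cpd 14-pt 3-fold dilutions, duplicate, top 10 μM, 0.5% DMSO. EC50 + max % activation vs vehicle via 4-parameter fit.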

[3] = molecular target: XIAP-BIR3 (Homo sapiens (Human), UniProt P98170); experiment: BIR binding assay (FRET competition), XIAP BIR3; conditions: for XIAP BIR3 vs BIR2 separation window: fold separation (FS) for XIAP
Method in brief: as §1

[4] = molecular target: cIAP2-BIR3 (Homo sapiens (Human), UniProt Q13489); experiment: BIR binding assay (FRET competition), cIAP2 BIR3; conditions: for cIAP2 BIR3 vs BIR2 separation window: fold separation (FS) for cIAP2
[5] = molecular target: cIAP1-BIR3 (Homo sapiens (Human), UniProt Q13490); experiment: BIR binding assay (FRET competition), cIAP1 BIR3; conditions: for cIAP1 BIR3 vs BIR2 separation window: fold separation (FS) for cIAP1
Method in brief: as §1

[6] = molecular target: XIAP-BIR2 (Homo sapiens (Human), UniProt P98170); experiment: BIR binding assay (FRET competition), XIAP BIR2; conditions: for IC50: read-out: XIAP BIR2 (pIC50) (converted)
Method in brief: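 Compounds in a 15-point, 3-fold series competed with an AlexaFluor647 SMAC peptide (AVPIAQKSE, 200 nM) for 200 nM His-tagged XIAP-BIR2 over 60 min in pH 7.4 HEPES/CHAPS/DTT buffer. Eu-W1024 (2 nM) was then added for 30 min. IC50 and pIC50 were derived from the 615 nm/665 nm emission ratio by variable-slope fit.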

[7] = molecular target: cIAP2-BIR2 (Homo sapiens (Human), UniProt Q13489); experiment: BIR binding assay (FRET competition), cIAP2 BIR2
Method in brief: as §1

Sequence of XIAP-BIR2 (P98170 124-240): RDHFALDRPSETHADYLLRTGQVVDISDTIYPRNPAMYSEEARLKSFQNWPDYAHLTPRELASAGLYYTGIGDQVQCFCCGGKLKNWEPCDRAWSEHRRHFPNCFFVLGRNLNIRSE
Sequence of XIAP-BIR3 (P98170 241-356): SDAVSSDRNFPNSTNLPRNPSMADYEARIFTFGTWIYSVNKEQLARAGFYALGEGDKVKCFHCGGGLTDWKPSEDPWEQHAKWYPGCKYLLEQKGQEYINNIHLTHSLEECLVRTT
Sequence of cIAP1-BIR3 (Q13490 253-363): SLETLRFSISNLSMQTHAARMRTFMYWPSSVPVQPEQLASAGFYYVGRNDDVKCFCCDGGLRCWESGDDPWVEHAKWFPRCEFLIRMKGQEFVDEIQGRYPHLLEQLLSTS
Sequence of cIAP1-BIR2 (Q13490 173-257): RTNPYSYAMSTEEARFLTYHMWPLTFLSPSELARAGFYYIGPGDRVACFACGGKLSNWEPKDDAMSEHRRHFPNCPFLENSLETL
Sequence of cIAP2-BIR2 (Q13489 158-242): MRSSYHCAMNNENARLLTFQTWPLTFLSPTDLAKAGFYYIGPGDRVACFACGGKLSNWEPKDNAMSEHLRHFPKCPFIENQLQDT
Sequence of cIAP2-BIR3 (Q13489 238-349): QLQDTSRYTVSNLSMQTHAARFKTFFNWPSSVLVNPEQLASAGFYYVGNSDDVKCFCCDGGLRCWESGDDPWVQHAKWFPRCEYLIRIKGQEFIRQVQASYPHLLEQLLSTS

| Structure (SMILES) | IC50 [1] [nM] | EC50 [2] [nM] | IC50 [3] [nM] | XIAP BIR3 vs BIR2 separation window [3] | IC50 [4] [nM] | cIAP2 BIR3 vs BIR2 separation window [4] | IC50 [5] [nM] | cIAP1 BIR3 vs BIR2 separation window [5] | IC50 ([6]; FRET competition binding) [nM] | IC50 [7] [nM] | cIAP2 BIR3 (pIC50) ([4]; FRET competition binding) | XIAP BIR2 (pIC50) ([6]; FRET competition binding) | IC50 ([6]; FRET competition) [nM] |
| --- | --- | --- | --- | --- | --- | --- | --- | --- | --- | --- | --- | --- | --- |
| C[C@@H]1CN(CC(=O)N2CC(C)(C)c3[nH]c(=O)c(Cc4ccc(F)cc4)cc32)[C@@H](CN2CCC(CN(C)C(=O)Cc3cccc(C(=O)N(C)CC4CCN(C[C@H]5CN[C@H](C)CN5CC(=O)N5CC(C)(C)c6[nH]c(=O)c(Cc7ccc(F)cc7)cc65)CC4)c3)CC2)CN1 [Example 98, N-((1-(((2R,5R)-1-(2-(6-(4-fluorobenzyl)-3,3-dimethyl-5-oxo-2,3,4,5-tetrahydro-1H-pyrrolo[3,2-b]pyridin-1-yl)-2-oxoethyl)-5-methylpiperazin-2-yl)methyl)piperidin-4-yl)methyl)-3-(2-(((1-(((2R,5R)-1-(2-(6-(4-fluorobenzyl)-3,3-dimethyl-5-oxo-2,3,4,5-tetrahydro-1H-pyrrolo[3,2-b]pyridin-1-yl)-2-oxoethyl)-5-methylpiperazin-2-yl)methyl)piperidin-4-yl)methyl)(methyl)amino)-2-oxoethyl)-N-methylbenzamide] | 1000 to 3160 | 63.1 to 316 | 7.94 to 15.8 | ++++ (FS>10,000) | 1.38 to 7.94 | +++ (10,000>FS>1,000) | 1.38 to 7.94 | +++ (10,000>FS>1,000) | 10000 to 51300 | 10000 to 51300 |  |  |  |
| C[C@@H]1CN(CC(=O)N2CC(C)(C)c3[nH]c(=O)c(Cc4ccc(F)cc4)cc32)[C@@H](CN2CCO[C@H](C(=O)N(C)CC3CCN(C(=O)[C@@H]4CN(C[C@H]5CN[C@H](C)CN5CC(=O)N5CC(C)(C)c6[nH]c(=O)c(Cc7ccc(F)cc7)cc65)CCO4)CC3)C2)CN1 [Example 132, (S)-4-(((2R,5R)-1-(2-(6-(4-fluorobenzyl)-3,3-dimethyl-5-oxo-2,3,4,5-tetrahydro-1H-pyrrolo[3,2-b]pyridin-1-yl)-2-oxoethyl)-5-methylpiperazin-2-yl)methyl)-N-((1-((S)-4-(((2R,5R)-1-(2-(6-(4-fluorobenzyl)-3,3-dimethyl-5-oxo-2,3,4,5-tetrahydro-1H-pyrrolo[3,2-b]pyridin-1-yl)-2-oxoethyl)-5-methylpiperazin-2-yl)methyl)morpholine-2-carbonyl)piperidin-4-yl)methyl)-N-methylmorpholine-2-carboxamide] | 3160 to 10000 | 12.6 to 63.1 | 15.8 to 31.6 | ++++ (FS>10,000) | 7.94 to 15.8 | +++ (10,000>FS>1,000) | 7.94 to 15.8 | +++ (10,000>FS>1,000) | 10000 to 51300 | 1000 to 3160 |  |  |  |
| C[C@@H]1CN(CC(=O)N2CC(C)(C)c3[nH]c(=O)c(Cc4ccc(F)cc4)cc32)[C@@H](CN2CCC[C@H](NC(=O)Cc3ccc(CC(=O)N[C@H]4CCCN(C[C@H]5CN[C@H](C)CN5CC(=O)N5CC(C)(C)c6[nH]c(=O)c(Cc7ccc(F)cc7)cc65)C4)cc3)C2)CN1 [Example 42, 2,2′-(1,4-phenylene)bis(N-((S)-1-(((2R,5R)-1-(2-(6-(4-fluorobenzyl)-3,3-dimethyl-5-oxo-2,3,4,5-tetrahydro-1H-pyrrolo[3,2-b]pyridin-1-yl)-2-oxoethyl)-5-methylpiperazin-2-yl)methyl)piperidin-3-yl)acetamide)] | 3160 to 10000 | 316 to 3310 | 31.6 to 501 | +++ (10,000>FS>1,000) |  | +++ (10,000>FS>1,000) | 31.6 to 501 | ++ (1,000>FS>100) |  | 3160 to 10000 | ++ (7.80>pIC50>=7.50) | + (4.29<pIC50<=5.00) |  |
| C[C@@H]1CN(CC(=O)N2CC(C)(C)c3[nH]c(=O)c(Cc4ccc(F)cc4)cc32)[C@@H](CN2CCC(CC(=O)NCc3ccc(CNC(=O)CC4CCN(C[C@H]5CN[C@H](C)CN5CC(=O)N5CC(C)(C)c6[nH]c(=O)c(Cc7ccc(F)cc7)cc65)CC4)cc3)CC2)CN1 [Example 105, N,N′-(1,4-phenylenebis(methylene))bis(2-(1-(((2R,5R)-1-(2-(6-(4-fluorobenzyl)-3,3-dimethyl-5-oxo-2,3,4,5-tetrahydro-1H-pyrrolo[3,2-b]pyridin-1-yl)-2-oxoethyl)-5-methylpiperazin-2-yl)methyl)piperidin-4-yl)acetamide)] | 3160 to 10000 | 63.1 to 316 | 7.94 to 15.8 | ++++ (FS>10,000) | 7.94 to 15.8 | +++ (10,000>FS>1,000) | 7.94 to 15.8 | +++ (10,000>FS>1,000) | 10000 to 51300 | 3160 to 10000 |  |  |  |
| C[C@@H]1CN(CC(=O)N2CC(C)(C)c3[nH]c(=O)c(Cc4ccc(F)cc4)cc32)[C@@H](CN2CCN(CCc3cn(CCC(=O)N4CCN(C[C@H]5CN[C@H](C)CN5CC(=O)N5CC(C)(C)c6[nH]c(=O)c(Cc7ccc(F)cc7)cc65)[C@H](C)C4)nn3)C[C@H]2C)CN1 [Compound 154] | 1000 to 3160 | 63.1 to 316 | 7.94 to 15.8 | ++++ (FS>10,000) | 7.94 to 15.8 | +++ (10,000>FS>1,000) | 7.94 to 15.8 | +++ (10,000>FS>1,000) |  | 1000 to 3160 |  |  | 10000 to 51300 |
| C[C@@H]1CN(CC(=O)N2CC(C)(C)c3[nH]c(=O)c(Cc4ccc(C(F)F)cc4)cc32)[C@@H](CN2CCO[C@H](C(=O)NCc3ccc(CNC(=O)[C@@H]4CN(C[C@H]5CN[C@H](C)CN5CC(=O)N5CC(C)(C)c6[nH]c(=O)c(Cc7ccc(C(F)F)cc7)cc65)CCO4)cc3)C2)CN1 [Compound 166, (2S,2′S)-N,N′-(1,4-phenylenebis(methylene)) bis(4-(((2R,5R)-1-(2-(6-(4-(difluoromethyl)benzyl)-3,3-dimethyl-5-oxo-2,3,4,5-tetrahydro-1H-pyrrolo[3,2-b]pyridin-1-yl)-2-oxoethyl)-5-methylpiperazin-2-yl)methyl)morpholine-2-carboxamide)] | 22.4 to 1000 | 316 to 3310 | 15.8 to 31.6 | ++++ (FS>10,000) | 1.38 to 7.94 | +++ (10,000>FS>1,000) | 7.94 to 15.8 | ++ (1,000>FS>100) |  | 22.4 to 1000 |  |  | 10000 to 51300 |
| C[C@@H]1CN(CC(=O)N2CC(C)(C)c3c2cc(Cc2ccc(F)cc2)c(=O)n3C)[C@@H](CN2CCO[C@H](COCc3ccc(COC[C@@H]4CN(C[C@H]5CN[C@H](C)CN5CC(=O)N5CC(C)(C)c6c5cc(Cc5ccc(F)cc5)c(=O)n6C)CCO4)cc3)C2)CN1 [Example 117, 1,1′-(2,2′-((3R,3′R,6R,6′R)-(((2S,2'S)-(((1,4-phenylenebis(methylene))bis(oxy))bis(methylene))bis(morpholine-2,4-diyl))bis(methylene))bis(3-methylpiperazine-6,1-diyl))bis(acetyl))bis(6-(4-fluorobenzyl)-3,3,4-trimethyl-1,2,3,4-tetrahydro-5H-pyrrolo[3,2-b]pyridin-5-one)] | 3160 to 10000 | 63.1 to 316 | 31.6 to 501 | ++++ (FS>10,000) | 15.8 to 31.6 | +++ (10,000>FS>1,000) | 15.8 to 31.6 | +++ (10,000>FS>1,000) | 10000 to 51300 | 3160 to 10000 |  |  |  |
